The Deep4Chem optical property database

Test: photoluminescence quantum yield (fraction); solvent given as SMILES

O=c1cc2c(-c3c(O)c4cccc5ccc6oc(=O)cc3c6c54)c(O)c3cccc4ccc(o1)c2c43
photoluminescence quantum yield (in CC1CCCO1): 0.13

CN(C)c1ccc(-c2cc(-c3ccc(N(C)C)cc3)ncn2)cc1
photoluminescence quantum yield (in ClCCl): 0.72

CCC1=C(C)C2=C(c3c(C)cc(C)nc3-c3cccs3)c3c(C)c(CC)c(C)n3[B-](F)(F)[N+]2=C1C
photoluminescence quantum yield (in C1CCCCC1): 0.53
photoluminescence quantum yield (in C1CCOC1): 0.46
photoluminescence quantum yield (in C1COCCO1): 0.49
photoluminescence quantum yield (in CC#N): 0.45
photoluminescence quantum yield (in CCCCCC): 0.52
photoluminescence quantum yield (in CCO): 0.47
photoluminescence quantum yield (in CCOC(C)=O): 0.47
photoluminescence quantum yield (in CCOCC): 0.5
photoluminescence quantum yield (in CN(C)C=O): 0.44
photoluminescence quantum yield (in CS(C)=O): 0.44
photoluminescence quantum yield (in Cc1ccccc1): 0.49
photoluminescence quantum yield (in ClC(Cl)(Cl)Cl): 0.5
photoluminescence quantum yield (in ClC(Cl)Cl): 0.49

CC(C)(C)c1ccc2oc3nc4oc5ccc(N6c7ccccc7Oc7ccccc76)cc5c4cc3c2c1
photoluminescence quantum yield (in ClC(Cl)Cl): 0.057

CCCCCCCCN1c2ccc(C#Cc3ccc(OC)cc3)cc2Sc2cc(C=O)ccc21
photoluminescence quantum yield (in C1CCOC1): 0.54
photoluminescence quantum yield (in CC#N): 0.34
photoluminescence quantum yield (in CCCCCC): 0.59
photoluminescence quantum yield (in CO): 0.07
photoluminescence quantum yield (in CS(C)=O): 0.91
photoluminescence quantum yield (in Cc1ccccc1): 0.49
photoluminescence quantum yield (in ClC(Cl)Cl): 0.58

CCCCN(CCCC)c1ccc(C#Cc2cc(C#Cc3ccc(N(CCCC)CCCC)cc3)c(C#Cc3c(F)c(F)c(F)c(F)c3F)cc2C#Cc2c(F)c(F)c(F)c(F)c2F)cc1
photoluminescence quantum yield (in ClCCl): 0.3

CC(C)C[Si](C#Cc1c2c(=O)c3ccccc3c2c(C#C[Si](CC(C)C)(CC(C)C)CC(C)C)c2c(=O)c3ccccc3c12)(CC(C)C)CC(C)C
photoluminescence quantum yield (in ClC(Cl)Cl): 0.1

CC(=O)c1ccc(-c2cccc3ncc(-c4ccccc4)n23)cc1
photoluminescence quantum yield (in ClCCl): 0.43

COc1nc(Nc2ccc3c4c(cccc24)C(=O)c2ccccc2-3)nc(OC)n1
photoluminescence quantum yield (in CC#N): 0.59
photoluminescence quantum yield (in CC(C)=O): 0.66
photoluminescence quantum yield (in CC(C)O): 0.38
photoluminescence quantum yield (in CCCCOCCCC): 0.22
photoluminescence quantum yield (in CCOC(C)=O): 0.58
photoluminescence quantum yield (in CCOCC): 0.39
photoluminescence quantum yield (in CO): 0.3
photoluminescence quantum yield (in Cc1ccccc1): 0.56
photoluminescence quantum yield (in Clc1ccccc1): 0.66
photoluminescence quantum yield (in N#Cc1ccccc1): 0.64
photoluminescence quantum yield (in O=C1CCCCC1): 0.67

c1ccc(-c2nnc(-c3cc(-c4nnc(-c5ccccc5)o4)c(-n4c5ccccc5c5ccccc54)cc3-n3c4ccccc4c4ccccc43)o2)cc1
photoluminescence quantum yield (in Cc1ccccc1): 0.101
photoluminescence quantum yield (in O=P(c1ccccc1)(c1ccccc1)c1ccccc1Oc1ccccc1P(=O)(c1ccccc1)c1ccccc1): 0.581

CC(=O)Nc1cccc2c1C#Cc1c(cccc1C(=O)N(C)C)OCCCO2
photoluminescence quantum yield (in CC#N): 0.005
photoluminescence quantum yield (in ClCCl): 0.012

CCOc1ccc2c(-c3nc(-c4cccc(Br)c4)no3)cc(=O)oc2c1
photoluminescence quantum yield (in CCO): 0.52
photoluminescence quantum yield (in ClC(Cl)Cl): 0.2

C(=C\c1nc2ccccc2[nH]1)/c1ccc(/C=C/c2nc3ccccc3[nH]2)cc1
photoluminescence quantum yield (in C1CCOC1): 0.855
photoluminescence quantum yield (in CC#N): 0.679
photoluminescence quantum yield (in CC(C)=O): 0.609
photoluminescence quantum yield (in CN(C)C=O): 0.775
photoluminescence quantum yield (in CO): 0.738
photoluminescence quantum yield (in CS(C)=O): 0.63

COc1cc(N(c2ccccc2)c2ccc(C=C(C#N)C#N)c(OC)c2)ccc1C=C(C#N)C#N
photoluminescence quantum yield (in C1COCCO1): 0.035
photoluminescence quantum yield (in CC#N): 0.008
photoluminescence quantum yield (in CC(C)=O): 0.017
photoluminescence quantum yield (in CCOC(C)=O): 0.085
photoluminescence quantum yield (in CN(C)C=O): 0.073
photoluminescence quantum yield (in CO): 0.039
photoluminescence quantum yield (in Cc1ccccc1): 0.032
photoluminescence quantum yield (in ClC(Cl)Cl): 0.076
photoluminescence quantum yield (in ClCCl): 0.072

CCC1=C(CC)C(C)=[N+]2C1=Cc1c(C)c3cc4c(cc3n1[B-]2(F)F)=[N+]1C(=Cc2c(CC)c(CC)c(C)n2[B-]1(F)F)C=4C
photoluminescence quantum yield (in ClC(Cl)Cl): 0.72

O=P1(c2ccccc2)C(c2cc(C(F)(F)F)cc(C(F)(F)F)c2)=Cc2c3ccc4cccc5ccc(c6cc(-c7ccccc7)n1c26)c3c45 (centres undefined)
photoluminescence quantum yield (in C1CCCCC1): 0.54
photoluminescence quantum yield (in C1CCOC1): 0.61
photoluminescence quantum yield (in C1COCCO1): 0.62
photoluminescence quantum yield (in CC#N): 0.63
photoluminescence quantum yield (in CC(C)=O): 0.64
photoluminescence quantum yield (in CO): 0.65
photoluminescence quantum yield (in Cc1ccccc1): 0.66
photoluminescence quantum yield (in ClC(Cl)Cl): 0.6
photoluminescence quantum yield (in ClCCl): 0.61

COc1cc2c(cc1OC)C1=C[C@H](c3ccccc3)C3(C(C#N)=C(C#N)N1CC2)c1ccccc1-c1ccccc13
photoluminescence quantum yield (in ClCCl): 0.00173

O=Cc1ccc(-c2ccc(O)c(-c3nc4ccccc4s3)c2)o1
photoluminescence quantum yield (in CCO): 0.0246
photoluminescence quantum yield (in ClCCl): 0.0632
photoluminescence quantum yield (in O): 0.02

COC(=O)[C@]12N=N[C@](C(=O)OC)(C3C4C5C4C5C31)C1C3C4C3C4C12 (some centres undefined)
photoluminescence quantum yield (in CC#N): 0.039

CN(C)c1ccc(/C=C/c2nc3ccccc3o2)cc1
photoluminescence quantum yield (in C1CCCCC1): 0.005
photoluminescence quantum yield (in CO): 0.007

C[Si](C)(C)c1ccc(-c2ccc(-c3ccc(-c4ccc(-c5ccc([Si](C)(C)C)s5)cc4)c4nsnc34)cc2)s1
photoluminescence quantum yield (in C1CCOC1): 0.73

Nc1ccc2c(c1)-c1ccccc1C2=O
photoluminescence quantum yield (in C1CCCCC1): 0.006
photoluminescence quantum yield (in CC#N): 0.043
photoluminescence quantum yield (in CCO): 0.0033
photoluminescence quantum yield (in c1ccccc1): 0.13

CN(C)c1ccc(C#Cc2ccc(C=O)cc2)cc1
photoluminescence quantum yield (in C1CCCCC1): 0.363
photoluminescence quantum yield (in C1CCOC1): 0.131
photoluminescence quantum yield (in C1COCCO1): 0.254
photoluminescence quantum yield (in CC1CCCO1): 0.223
photoluminescence quantum yield (in CC#N): 0.012
photoluminescence quantum yield (in CC(C)=O): 0.047
photoluminescence quantum yield (in CC(C)CC(C)(C)C): 0.044
photoluminescence quantum yield (in CC(C)O): 0.017
photoluminescence quantum yield (in CCCCCCCCCCCCCCCC): 0.056
photoluminescence quantum yield (in CCCCCCCCCCCCCCCCCl): 0.093
photoluminescence quantum yield (in CCOC(C)=O): 0.174
photoluminescence quantum yield (in CCOCC): 0.201
photoluminescence quantum yield (in CN(C)C=O): 0.046
photoluminescence quantum yield (in CO): 0.006
photoluminescence quantum yield (in CS(C)=O): 0.037
photoluminescence quantum yield (in Cc1ccccc1): 0.337

CC1=CC(C)=[N+]2C1=Cc1c(C)cc(C)n1[B-]2(F)F
photoluminescence quantum yield (in CCCCCC): 0.96
photoluminescence quantum yield (in CO): 0.99
photoluminescence quantum yield (in ClCCl): 0.92

Cc1oc(C)c2c1C=C(C=O)CC(C=O)=C2
photoluminescence quantum yield (in ClC(Cl)Cl): 0

CC(C)(C)c1ccc(-c2nc3ccccc3nc2-c2cc(-c3nc4ccccc4nc3-c3ccc(C(C)(C)C)cc3)cc(-n3c4ccccc4c4ccccc43)c2)cc1
photoluminescence quantum yield (in Cc1ccccc1): 0.35

C=C[Si](c1c2ccccc2cc2ccccc12)(c1c2ccccc2cc2ccccc12)c1c2ccccc2cc2ccccc12
photoluminescence quantum yield (in ClC(Cl)Cl): 0.017

N#Cc1c(-n2nnc3cc(Cl)ccc32)n([C@H]2C[C@H](O)[C@@H](CO)O2)c2ncnc(N)c12
photoluminescence quantum yield (in CO): 0.008

CN(C)c1nc(N)c2nc(C#N)n(Cc3ccccc3)c2n1
photoluminescence quantum yield (in C1COCCO1): 0.92
photoluminescence quantum yield (in CC#N): 0.55
photoluminescence quantum yield (in CO): 0.8
photoluminescence quantum yield (in ClCCl): 0.95

CCC1(CC)c2cc(B(c3c(C)cc(C)cc3C)c3c(C)cc(C)cc3C)ccc2-c2c1c1c(c3c2C(CC)(CC)c2cc(B(c4c(C)cc(C)cc4C)c4c(C)cc(C)cc4C)ccc2-3)C(CC)(CC)c2cc(B(c3c(C)cc(C)cc3C)c3c(C)cc(C)cc3C)ccc2-1
photoluminescence quantum yield (in C1CCOC1): 0.34

CCC1=C(C)C2=C(C)c3c(I)c(I)cn3[B-](F)(F)[N+]2=C1C
photoluminescence quantum yield (in C1CCCCC1): 0.05
photoluminescence quantum yield (in CC(C)=O): 0.024
photoluminescence quantum yield (in CCO): 0.021
photoluminescence quantum yield (in CCOC(C)=O): 0.031
photoluminescence quantum yield (in CO): 0.02
photoluminescence quantum yield (in OCC(F)(F)F): 0.019

CCCCCCC1(CCCCCC)c2cc(-c3ccc(-c4ccc(-c5ccc(-c6ccc7c(c6)C(CCCCCC)(CCCCCC)c6cc(-n8c9ccccc9c9ccccc98)ccc6-7)s5)c5nsnc45)s3)ccc2-c2ccc(-n3c4ccccc4c4ccccc43)cc21
photoluminescence quantum yield (in ClCCl): 0.39

COc1ccc(-c2ccc(-c3c4c(nc5ccccc35)-c3cc5c(cc3CC4)-c3nc4ccccc4c(-c4ccc(-c6ccc(OC)cc6)cc4)c3CC5)cc2)cc1
photoluminescence quantum yield (in ClC(Cl)Cl): 0.827

COCCC1=Cc2nc1ccc1[nH]c(cc1CCOC)c1nc(ccc3[nH]c2cc3CCOC)C(CCOC)=C1
photoluminescence quantum yield (in Cc1ccccc1): 0.47

C#CCN1C(=O)/C(=C/c2cc(OC(C)C)ccc2OC(C)C)N=C1C
photoluminescence quantum yield (in C1COCCO1): 0.108
photoluminescence quantum yield (in CC#N): 0.134
photoluminescence quantum yield (in CC(C)=O): 0.12
photoluminescence quantum yield (in CCCCCC): 0.089
photoluminescence quantum yield (in CCCCO): 0.029
photoluminescence quantum yield (in CCCO): 0.08
photoluminescence quantum yield (in CCO): 0.025
photoluminescence quantum yield (in CCOC(C)=O): 0.101
photoluminescence quantum yield (in CN(C)C=O): 0.171
photoluminescence quantum yield (in CO): 0.019
photoluminescence quantum yield (in CS(C)=O): 0.182

COc1ccc(-c2nc(-c3ccccc3)c(N(C)C)[se]2)cc1
photoluminescence quantum yield (in ClC(Cl)Cl): 0.039

CC1(C)OB(c2ccc3ccc4cccc5ccc2c3c45)OC1(C)C
photoluminescence quantum yield (in Cc1ccccc1): 0.81

CC(C)(C)OC(=O)NC(C(=O)OCc1ccc2c3cccc4cccc(c5cccc1c52)c43)c1c[nH]c2ccccc12 (centres undefined)
photoluminescence quantum yield (in CCO): 0.86

COc1ccc(/C=C/c2ccccc2)cc1OC
photoluminescence quantum yield (in C1CCCCC1): 0.06
photoluminescence quantum yield (in CC#N): 0.035
photoluminescence quantum yield (in CC(C)O): 0.041
photoluminescence quantum yield (in CCCCOCCCC): 0.05
photoluminescence quantum yield (in CCOC(C)=O): 0.046
photoluminescence quantum yield (in CCOCC): 0.051

CC[n+]1nc2cc3c4c(c2c2cc(F)ccc21)CCCN4CCC3
photoluminescence quantum yield (in O): 0.34

CC1=N/C(=C\c2cc(N(C)C)ccc2C#N)C(=O)N1C
photoluminescence quantum yield (in C1CCOC1): 0.19
photoluminescence quantum yield (in CC#N): 0.07
photoluminescence quantum yield (in CCCCCC): 0.6

c1csc(-c2ccc(-c3ccc(-c4cccs4)s3)s2)c1
photoluminescence quantum yield (in CCC(C)C): 0.27
photoluminescence quantum yield (in ClCCl): 0.16

c1ccc(-n2nc(-c3ccc(N4c5ccccc5Sc5ccccc54)cc3)nc2-c2ccccn2)cc1
photoluminescence quantum yield (in ClCCl): 0.0562

Cc1ccc(N2C(c3ccccc3N)=NC(c3ccccc3)C2c2ccccc2)cc1 (centres undefined)
photoluminescence quantum yield (in Cc1ccccc1): 0.009

COc1ccc(-c2nc3c(ccc4ccccc43)oc2=O)cc1
photoluminescence quantum yield (in c1ccccc1): 0.57

CC(C)[Si](C#Cc1c2ccccc2c(C#C[Si](C(C)C)(C(C)C)C(C)C)c2nc3cc4c(cc3nc12)C1c2ccccc2C4c2ccccc21)(C(C)C)C(C)C
photoluminescence quantum yield (in CCCCCC): 0.57
photoluminescence quantum yield (in ClCCl): 0.76

C1=C(c2ccccc2)C(c2ccccc2)=CC1c1ccccc1
photoluminescence quantum yield (in C1CCOC1): 0.0137
